Measured values taken from patent US20230002334A1, “TRPM8 MODULATORS” (Givaudan SA, priority 2019, published 2023).

The compounds below were run against T1, hTRPM8 (Homo sapiens, UniProt Q7Z2W7) (assay: Assay on TRPM8 modulators: calcium imaging (Fluo-4, Flexstation) in HEK293 cell line stably expressing hTRPM8). Settings: HEK293 cells stably expressing hTRPM8, calcium influx, sigmoidal dose-response fit; read-out: EC50.
T1 construct: expressed in transfected cells
Format: cell-based
Procedure: A HEK293 cell line stably expressing hTRPM8 was generated according to Klein et al., (Chem. Senses 36: 649-658, 2011) and receptor activation was monitored by calcium imaging in a Flexstation. For Ca-imaging assays of TRPM8 channel activation, cells were seeded on day 0 at a density of 12000 cells per well in Dulbecco's modified Eagle medium (DMEM) containing 9% foetal bovine serum in black, clear bottom 96-well plates that had been coated with 0.001% polyethyleneimine (molecular weight=60 000, Acros Organics). On day 2, agonists were evaluated via calcium imaging using Fluo-4. Briefly, growth medium was discarded, and the cells were incubated in the dark for 1 h at 37° C. in 50 μL loading buffer consisting of 2.7 μM Fluo-4 AM (Invitrogen) and […] probenecid (Sigma-Aldrich) in DMEM (without serum). After incubation, the plates were washed five times with 100 μL of assay buffer (in mM: 130 NaCl, 5 KCl, 10 HEPES, 2 CaCl2, and 10 glucose, pH7.4.) and further incubated in the dark at room temperature for 30 min. The cells were then washed five times with 100 μL assay buffer and then calcium influx to serial dilutions of inventive compounds were measured in a Flexstation 3 (Molecular Devices). Receptor activation was initiated following addition of 20 μl of a 10-fold concentrated ligand stock solution, which is also prepared in assay buffer. Fluorescence was continuously monitored for 15 seconds prior to ligand addition and for 105 seconds after ligand addition, for a total of 120 seconds. Maximal receptor activation in relation to solvent control and relative to 31.6 μM menthol is determined. Data from serial dilutions were processed with a KNIME workflow to fit a sigmoidal dose-response curve and to extrapolate EC50 values.

T1 sequence (Q7Z2W7 whole entry): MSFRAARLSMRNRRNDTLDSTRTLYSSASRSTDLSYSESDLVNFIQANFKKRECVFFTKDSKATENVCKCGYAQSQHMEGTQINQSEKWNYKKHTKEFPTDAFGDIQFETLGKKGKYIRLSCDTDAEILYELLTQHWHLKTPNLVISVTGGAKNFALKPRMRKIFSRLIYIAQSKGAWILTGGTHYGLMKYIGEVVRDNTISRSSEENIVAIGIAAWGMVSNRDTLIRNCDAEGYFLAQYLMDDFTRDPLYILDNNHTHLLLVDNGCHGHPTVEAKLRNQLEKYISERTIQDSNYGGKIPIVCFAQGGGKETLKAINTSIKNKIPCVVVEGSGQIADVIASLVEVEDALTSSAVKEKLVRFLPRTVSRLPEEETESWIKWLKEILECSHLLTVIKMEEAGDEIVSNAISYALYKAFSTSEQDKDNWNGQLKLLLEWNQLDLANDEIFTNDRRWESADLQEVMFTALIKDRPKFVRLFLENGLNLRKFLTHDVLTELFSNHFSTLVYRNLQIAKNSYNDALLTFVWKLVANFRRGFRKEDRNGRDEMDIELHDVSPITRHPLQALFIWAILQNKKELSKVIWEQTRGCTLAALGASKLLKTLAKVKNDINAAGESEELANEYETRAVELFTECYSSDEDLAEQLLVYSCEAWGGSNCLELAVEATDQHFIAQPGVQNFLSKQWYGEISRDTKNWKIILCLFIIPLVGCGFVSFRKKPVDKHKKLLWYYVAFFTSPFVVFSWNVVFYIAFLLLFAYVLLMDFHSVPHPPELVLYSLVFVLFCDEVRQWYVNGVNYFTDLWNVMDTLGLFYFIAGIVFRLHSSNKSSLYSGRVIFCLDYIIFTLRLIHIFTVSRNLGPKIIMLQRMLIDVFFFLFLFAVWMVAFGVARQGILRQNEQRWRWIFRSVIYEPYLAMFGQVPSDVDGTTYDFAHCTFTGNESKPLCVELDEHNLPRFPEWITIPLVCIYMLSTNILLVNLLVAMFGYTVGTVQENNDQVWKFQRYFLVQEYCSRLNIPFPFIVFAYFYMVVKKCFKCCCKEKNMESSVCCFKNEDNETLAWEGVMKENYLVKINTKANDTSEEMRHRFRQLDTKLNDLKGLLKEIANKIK

Row | EC50 [nM] | Compound
1 | < 50 | CC(C)N1OC(C)(C)[C@@H]2C[C@](C)(c3cccc(C#N)c3)C[C@H](C)[C@H]21 (racemic) [Compound 127, rac-3-((3aR,5R,7S,7aR)-1-isopropyl-3,3,5,7-tetramethyloctahydrobenzo[c]isoxazol-5-yl)benzonitrile]
2 | 300 to 1000 | Cc1c(C#N)cccc1C1(C)CC(C)C2C(C1)C(C)(C)ON2C (stereo not shown) [Compound 15, 2-methyl-3-(1,3,3,5,7-pentamethyloctahydrobenzo[c]isoxazol-5-yl)benzonitrile]
3 | 50 to 300 | Cc1ccc(C#N)cc1[C@@]1(C)C[C@@H](C)[C@H]2[C@H](C1)C(C)(C)ON2C (stereo in doubt) [Compound 139, rel-4-methyl-3-((3aS,5S,7R,7aS)-1,3,3,5,7-pentamethyloctahydrobenzo[c]isoxazol-5-yl)benzonitrile]
4 | 50 to 300 | Cc1ccc([C@@]2(C)C[C@@H]3[C@@H]([C@@H](C)C2)N(C)OC3(C)C)cc1 (racemic) [Compound 47, rac-(3aR,5R,7S,7aR)-1,3,3,5,7-pentamethyl-5-(p-tolyl)octahydrobenzo[c]isoxazole]
5 | 300 to 1000 | C[C@H]1C[C@@](C)(c2ccoc2)C[C@@H]2[C@@H]1N(C)OC2(C)C (racemic) [Compound 110, rac-(3aR,5R,7S,7aR)-5-(furan-3-yl)-1,3,3,5,7-pentamethyloctahydrobenzo[c]isoxazole]
6 | 50 to 300 | C[C@H]1C[C@@](C)(c2cc(F)ccc2F)C[C@@H]2[C@@H]1N(C)OC2(C)C (racemic) [Compound 73, rac-(3aR,5R,7S,7aR)-5-(2,5-difluorophenyl)-1,3,3,5,7-pentamethyloctahydrobenzo[c]isoxazole]
7 | < 50 | CC(C)N1OC(C)(C)[C@@H]2C[C@](C)(c3ccc(F)cc3)C[C@H](C)[C@H]21 (racemic) [Compound 103, rac-(3aR,5R,7S,7aR)-5-(4-fluorophenyl)-1-isopropyl-3,3,5,7-tetramethyloctahydrobenzo[c]isoxazole]
8 | 50 to 300 | COc1cccc([C@@]2(C)C[C@@H]3[C@@H]([C@@H](C)C2)N(C)OC3(C)C)c1 (racemic) [Compound 94, rac-(3aR,5R,7S,7aR)-5-(3-methoxyphenyl)-1,3,3,5,7-pentamethyloctahydrobenzo[c]isoxazole]
9 | 1000 to 35000 | CC(C)CCC1CC(C)C2C(C1)C(C)(C)OC(=O)N2C (stereo not shown) [Compound 21, 6-isopentyl-1,4,4,8-tetramethyloctahydro-2H-benzo[d][1,3]oxazin-2-one]
10 | 50 to 300 | Cc1cccc([C@@]2(C)C[C@@H]3[C@@H]([C@@H](C)C2)N(C)OC3(C)C)c1 (racemic) [Compound 43, rac-(3aR,5R,7S,7aR)-1,3,3,5,7-pentamethyl-5-(m-tolyl)octahydrobenzo[c]isoxazole]
11 | 300 to 1000 | COc1ccc([C@@]2(C)C[C@@H]3[C@@H]([C@@H](C)C2)N(C)OC3(C)C)cc1 (racemic) [Compound 104, rac-(3aR,5R,7S,7aR)-5-(4-methoxyphenyl)-1,3,3,5,7-pentamethyloctahydrobenzo[c]isoxazole]
12 | 300 to 1000 | CCOc1ccccc1[C@@]1(C)C[C@@H]2[C@@H]([C@@H](C)C1)N(C)OC2(C)C (racemic) [Compound 77, rac-(3aR,5R,7S,7aR)-5-(2-ethoxyphenyl)-1,3,3,5,7-pentamethyloctahydrobenzo[c]isoxazole]
13 | 50 to 300 | C[C@H]1C[C@@](C)(c2ccc3ccccc3c2)C[C@@H]2[C@@H]1N(C)OC2(C)C (racemic) [Compound 45, rac-(3aR,5R,7S,7aR)-1,3,3,5,7-pentamethyl-5-(naphthalen-2-yl)octahydrobenzo[c]isoxazole]
14 | 300 to 1000 | Cc1ccc(F)cc1[C@H]1C[C@@H]2[C@@H]([C@@H](C)C1)N(C)OC2(C)C (racemic) [Compound 108, rac-(3aR,5R,7S,7aR)-5-(5-fluoro-2-methylphenyl)-1,3,3,7-tetramethyloctahydrobenzo[c]isoxazole]
15 | 300 to 1000 | C[C@H]1C[C@@](C)(c2ccc3c(c2)OCO3)C[C@@H]2[C@@H]1N(C)OC2(C)C (racemic) [Compound 109, rac-(3aR,5R,7S,7aR)-5-(benzo[d][1,3]dioxol-5-yl)-1,3,3,5,7-pentamethyloctahydrobenzo[c]isoxazole]
16 | < 50 | COc1cc(F)ccc1[C@@]1(C)C[C@@H]2[C@@H]([C@@H](C)C1)N(C)OC2(C)C (racemic) [Compound 99, rac-(3aR,5R,7S,7aR)-5-(4-fluoro-2-methoxyphenyl)-1,3,3,5,7-pentamethyloctahydrobenzo[c]isoxazole]
17 | 300 to 1000 | C[C@H]1C[C@@](C)(c2cc(F)cc(C(F)(F)F)c2)C[C@@H]2[C@@H]1N(C)OC2(C)C (racemic) [Compound 91, rac-(3aR,5R,7S,7aR)-5-(3-fluoro-5-(trifluoromethyl)phenyl)-1,3,3,5,7-pentamethyloctahydrobenzo[c]isoxazole]
18 | 1000 to 35000 | CCC[C@@]1(C)C[C@@H]2[C@@H]([C@@H](C)C1)N(C(C)C)OC2(C)C (racemic) [Compound 61, rac-(3aR,5R,7S,7aR)-1-isopropyl-3,3,5,7-tetramethyl-5-propyloctahydrobenzo[c]isoxazole]
19 | 50 to 300 | CSc1ccccc1[C@@]1(C)C[C@@H]2[C@@H]([C@@H](C)C1)N(C)OC2(C)C (racemic) [Compound 37, rac-(3aR,5R,7S,7aR)-1,3,3,5,7-pentamethyl-5-(2-(methylthio)phenyl)octahydrobenzo[c]isoxazole]

Row | Compound | EC50 [nM]
20 | CCC[C@@H]1CC[C@@H]2[C@@H](C1)C(C)(C)ON2C (racemic) [Compound 24, rac-(3aR,5R,7aR)-1,3,3-trimethyl-5-propyloctahydrobenzo[c]isoxazole] | 300 to 1000
21 | CCC1CC(CC)C2C(C1)C(C)(C)ON2C (stereo not shown) [Compound 19, 5,7-diethyl-1,3,3-trimethyloctahydrobenzo[c]isoxazole] | 1000 to 35000
22 | CC[C@@H]1CC[C@@H]2[C@@H](C1)C(C)(C)ON2C(C)C (racemic) [Compound 30, rac-(3aR,5R,7aR)-5-ethyl-1-isopropyl-3,3-dimethyloctahydrobenzo[c]isoxazole] | 1000 to 35000
23 | CCN1OC(C)(C)[C@@H]2C[C@H](C)C[C@H](C)[C@H]21 (racemic) [Compound 56, rac-(3aR,5R,7S,7aR)-1-ethyl-3,3,5,7-tetramethyloctahydrobenzo[c]isoxazole] | 1000 to 35000
24 | CCCC[C@@H]1CC[C@@H]2[C@@H](C1)C(C)(C)ON2C(C)C (racemic) [Compound 29, rac-(3aR,5R,7aR)-5-butyl-1-isopropyl-3,3-dimethyloctahydrobenzo[c]isoxazole] | 1000 to 35000
25 | CC1CC(C)[C@H]2[C@@H](C1C)C(C)(C)ON2C (mixture of isomers) [Compound 117, rac-(3aR,7aS)-1,3,3,4,5,7-hexamethyloctahydrobenzo[c]isoxazole] | 1000 to 35000
26 | CC1CCC2C(C1)N(C)OC2(C)C (stereo not shown) [Compound 6, 1,3,3,6-tetramethyloctahydrobenzo[c]isoxazole] | 1000 to 35000
27 | CCCC[C@@H]1CC[C@@H]2[C@@H](C1)C(C)(C)ON2CC (racemic) [Compound 28, rac-(3aR,5R,7aR)-5-butyl-1-ethyl-3,3-dimethyloctahydrobenzo[c]isoxazole] | 300 to 1000
28 | CC1CC(C)C2C(C1)C1(CCCC1)ON2C(C)C (stereo not shown) [Compound 13, 1-isopropyl-5,7-dimethylhexahydro-1H-spiro[benzo[c]isoxazole-3,1-cyclopentane]] | 1000 to 35000
